Read-outs that look alike come from different tables or passages of the source. No end group written: not given here.
Legend:
Assay in all cases: biochemical
[1] = molecular target: DR1 (DRB1*0101) (Homo sapiens, UniProt P01903+P01911, A100R/D57E/F55L/F60I/F76Y/I96L/L162R/M171V/P40L/Q125E/R42F/V115G/Y59C); type: binding
[2] = molecular target: DR4w4 (DRB1*0401) (Homo sapiens, UniProt P01903+P01911, A100K/A169T/F76Y/I96L/K127E/L162R/M171V/N62H/P40V/Q125Y/R42H/S133A/S149N/S66Y/V115G/V209L/W38E); type: binding
[3] = molecular target: DR7 (DRB1*0701) (Homo sapiens, UniProt P01903+P01911, A100R/A102G/A103Q/D57E/D86V/E43K/F76Y/K127E/L162R/M171V/P40G/Q125H/Q99D/R33Q/R42Y/R54Q/S133A/S66F/T210M/V115G/Y107V/Y59L/Y89S); type: binding
[4] = molecular target: DRB1*0405 (Homo sapiens, UniProt P01903+P01911, A100R/A169T/D86S/F76Y/I96L/K127E/L162R/M171V/N62H/P40V/Q125Y/R42H/S133A/S149N/S66Y/V115G/V209L/W38E); type: binding
[5] = molecular target: DRB1*0802 (Homo sapiens, UniProt P01903+P01911, A100R/A103L/A169T/F76Y/H45Y/I96F/K41T/L162R/M171V/P40S/Q125H/Q178H/Q39Y/Q99D/R218S/R42G/S66Y/V115G/W38E); type: binding
[6] = molecular target: DRB1*0901 (Homo sapiens, UniProt P01903+P01911, A100R/A103E/D57H/D86V/F55Y/F60I/F76Y/I96F/K127E/L162R/M171V/P40D/Q125H/Q99R/R33Q/R42F/S133A/S66N/T210M/V115G/W38K/Y107V/Y59G/Y89S); type: binding
[7] = molecular target: DRB1*1302 (Homo sapiens, UniProt P01903+P01911, A100E/A169T/K41T/L162R/M171V/P40S/Q125H/Q178H/Q39Y/Q99D/R42S/S66N/T262R/V115G/W38E/Y61H); type: binding
[8] = molecular target: DRB1*1501 (Homo sapiens, UniProt P01903+P01911); type: binding
[9] = molecular target: DRB4*0101 (Homo sapiens, UniProt P01903+P13762, G164S); type: binding
[10] = molecular target: DRB1*1101 (Homo sapiens, UniProt P01903+P01911, A100R/A169T/A87E/I96F/K41T/L162R/M171V/P40S/Q125H/Q178H/Q39Y/Q99D/R42S/S66Y/T262R/V115G/W38E)
[11] = molecular target: DRB5*0101 (Homo sapiens, UniProt P01903+Q30154)

Sequence of DRB1*1302 (P01903 26-254 limits assumed, other chains not shown): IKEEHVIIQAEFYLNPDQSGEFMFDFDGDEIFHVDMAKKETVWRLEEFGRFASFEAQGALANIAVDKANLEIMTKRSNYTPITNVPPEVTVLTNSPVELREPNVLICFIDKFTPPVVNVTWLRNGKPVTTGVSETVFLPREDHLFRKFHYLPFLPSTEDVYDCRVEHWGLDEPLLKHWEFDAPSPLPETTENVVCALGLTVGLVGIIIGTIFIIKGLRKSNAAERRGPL
Sequence of DRB1*1101 (P01903 26-254 limits assumed, other chains not shown): as above

Sequence | IC50 [1] [µM] | IC50 [2] [µM] | IC50 [3] [µM] | IC50 [4] [µM] | IC50 [5] [µM] | IC50 [6] [µM] | IC50 [7] [µM] | IC50 [8] [µM] | IC50 [9] [µM] | IC50 ([10]; Binding affinity DRB1 *1101) [µM] | IC50 ([11]; Binding affinity DRB5 *0101) [µM] | IC50 [10] [µM] | IC50 [11] [µM]
GKSYFGMSLISFLQG [Peptide 89.0056] | 0.17 | 1.09 | 0.284 | 1.23 | 6.02 | 0.512 | 1.34 | 4.79 | 1.96 | 0.9 | > 20 | – | –
GQVIVCPTSISSNQI [Peptide 89.0185] | – | 0.091 | > 20 | 7.59 | 1.63 | > 20 | 1.33 | 3.76 | 1.75 | 6.53 | 2.48 | – | –
HCTLYTAVSSTWHWT [Peptide 89.0157] | 2.89 | 19 | > 20 | > 20 | > 20 | > 20 | 0.867 | > 20 | > 20 | > 20 | > 20 | – | –
IHFLKGCIISYVNSK [Peptide 89.0147] | > 20 | 3.84 | 6.49 | > 20 | > 20 | > 20 | > 20 | > 20 | 1.36 | > 20 | > 20 | – | –
KNCILIHGAPNTGKS [Peptide 89.0055] | – | > 20 | 7.3 | 3.85 | > 20 | 17 | 8.91 | 1.4 | 0.577 | 19.9 | > 20 | – | –
LIKFFQGSVISFVNS [Peptide 89.0135] | > 20 | > 20 | > 20 | > 20 | 7.98 | > 20 | 0.071 | > 20 | 3.73 | – | – | > 20 | > 20
LKVLIKQHSIYTHLQ [Peptide 89.0142] | – | > 20 | > 20 | > 20 | > 20 | > 20 | 0.448 | > 20 | > 20 | > 20 | > 20 | – | –
QAELETAQALFHAQE [Peptide 89.0022] | – | 0.122 | 3.01 | 0.592 | > 20 | 0.338 | 2.78 | > 20 | 0.072 | > 20 | 1.95 | – | –
QKCFKKKGITVTVQY [Peptide 90.0026] | – | 0.996 | 4.39 | 2.91 | 1.33 | 0.639 | 0.837 | > 20 | 1.31 | 7.82 | > 20 | – | –
RKTIAKALSSILNVP [Peptide 89.0123] | > 20 | 11.5 | > 20 | > 20 | > 20 | > 20 | > 20 | > 20 | 0.746 | – | – | > 20 | –
VKFLRYQQIEFVSFL [Peptide 89.0052] | – | 1.28 | 4.59 | 2.77 | 7.05 | 3.21 | 0.024 | 0.535 | 0.002 | 1.1 | 11.2 | – | –

Reference: patent publication US9340577B2, “HLA binding motifs and peptides and their uses” (priority 1992, dated 2016)
